From US5068244A, “Benzocyclohexanes and analgesic compositions thereof” (Roussel Uclaf, priority 1988, dated 1991) come the findings set out here.

This test deals with T1, opiate receptor K (Cavia porcellus, UniProt P41144).
T1 construct: Membranous sediment preserved at -30° C; and prepared from guinea pig cerbelli were used; from tissue; host or cells: guinea pig cerebellum membranes
Put plainly: Binding of the opiate receptor K in vitro (displacement of 3H ethylketocyclazocine). The settings on record: guinea pig cerebellum membranes, 3H ethylketocyclazocine 1 nM, Tris pH 7.7, 25° C., 40 minutes; read-out: CI50 (the source's name). The protocol: Membranous sediment preserved at -30° C. (possibly for 30 days) and prepared from guinea pig cerbelli were used. The sediments were put in suspension in the buffer Tris pH 7.7. Fractions of 2 ml were distributed in hemolysis tubes and ^3 H ethylketocyclazocine 1 nM and the product to be studied were added. The following were determined: the maximum quantity of fixed radioactivity in the presence of ^3 H ethylketocyclazocine alone, the quantity of radioactivity bonded in a non-specific manner in the presence of the tritiated ligand and of an excess (10^-5 M) of the reference product known under the name of U-50488 H and the displacement of specific bonding produced by a dose of 5×10^-5 M of the product to be tested.
These tests were carried out in triplicate and aliquotes of 2 ml were incubated at 25° C. for 40 minutes. After returning to 0° C. for 5 minutes at the end of the incubation, they were filtered with Whatman GF/C filters, rinsed in Tris buffer pH 7.7 and the radioactivity was counted in the presence of scintillating Triton. When the product to be tested displaced the specifically fixed radioactivity by more than 50%, the 50% inhibiting concentration (CI50) was determined by a 7 dose scale. The results of the 50% inhibiting concentration were then expressed in nM. The CI50 was therefore the concentration of the product studied, expressed in nM, necessary to displace 50% of the specifically fixed radioactivity on the receptor studied (LAHTI et al, 1982, Life Sci., Vol. 31, 2257) The results are as follows: […]

T1 sequence (P41144 whole entry): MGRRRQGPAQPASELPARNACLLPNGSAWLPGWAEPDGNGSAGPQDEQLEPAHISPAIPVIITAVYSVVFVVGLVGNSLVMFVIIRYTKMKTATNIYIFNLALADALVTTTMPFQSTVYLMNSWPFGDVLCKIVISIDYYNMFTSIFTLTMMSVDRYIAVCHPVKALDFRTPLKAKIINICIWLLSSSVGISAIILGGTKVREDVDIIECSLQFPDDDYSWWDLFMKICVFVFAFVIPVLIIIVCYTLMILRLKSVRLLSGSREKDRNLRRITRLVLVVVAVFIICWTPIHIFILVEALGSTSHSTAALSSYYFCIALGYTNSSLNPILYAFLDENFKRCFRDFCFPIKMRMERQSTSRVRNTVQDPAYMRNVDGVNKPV

On to `CN(C(=O)Cc1ccc([N+](=O)[O-])cc1)[C@H]1c2ccccc2CC[C@@H]1N1CCCC1` (relative stereo) [Example 2, Trans (±) N-methyl-4-nitro-N-[2-(1-pyrrolidinyl)-1,2,3,4-tetrahydro-1-naphthyl]-benzene acetamide], for which the IC50 came to 0.012 µM.
On to `CN(C(=O)Cc1cccc2ccccc12)[C@H]1c2ccccc2CC[C@@H]1N1CCCC1` (relative stereo) [Example 3, Trans (±) N-methyl-N-[2-(1-pyrrolidinyl)-1,2,3,4-tetrahydro-1-naphthyl]-1-naphthalene acetamide], for which the IC50 came to 0.011 µM.
With `CN(C(=O)Cc1cccc2sccc12)[C@H]1c2ccccc2CC[C@@H]1N1CCCC1` (relative stereo) [Example 20, Trans (±) N-methyl-N-[2-(1-pyrrolidinyl)-1,2,3,4-tetrahydro-1-naphthyl]-4-benzo-[b]-thiophene acetamide] the figure was 0.0033 µM.
